One data set concerns the target T1, human Kv4.3 (Homo sapiens, UniProt Q9UK17).
T1 construct: expressed in transfected cells; host or cells: transgenic C. elegans strain UG1755 (N2 injected with plasmid pGV8, integrated array)
T1 sequence (Q9UK17 1-655): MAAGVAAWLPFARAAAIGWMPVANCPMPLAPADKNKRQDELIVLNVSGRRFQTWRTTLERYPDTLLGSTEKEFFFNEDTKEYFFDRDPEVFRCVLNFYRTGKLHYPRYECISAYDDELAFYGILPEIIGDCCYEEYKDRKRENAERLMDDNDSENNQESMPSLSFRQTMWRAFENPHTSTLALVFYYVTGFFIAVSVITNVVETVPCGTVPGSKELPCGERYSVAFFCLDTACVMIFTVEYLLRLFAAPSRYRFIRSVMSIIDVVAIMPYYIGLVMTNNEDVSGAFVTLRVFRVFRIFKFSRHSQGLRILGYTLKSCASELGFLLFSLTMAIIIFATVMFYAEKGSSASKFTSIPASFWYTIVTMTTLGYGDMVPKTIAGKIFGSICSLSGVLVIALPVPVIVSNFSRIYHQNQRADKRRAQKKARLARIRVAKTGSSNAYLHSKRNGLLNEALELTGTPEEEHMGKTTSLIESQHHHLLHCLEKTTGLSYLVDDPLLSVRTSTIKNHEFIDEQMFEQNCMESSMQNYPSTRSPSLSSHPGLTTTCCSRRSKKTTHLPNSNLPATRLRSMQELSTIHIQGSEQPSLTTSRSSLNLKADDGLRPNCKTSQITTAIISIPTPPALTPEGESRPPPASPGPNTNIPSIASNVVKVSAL
Kind of data set: C. elegans based high-throughput screen for Kv4.3 modulators (pharynx pumping, Calcein AM uptake), transgenic strain UG1755. It is filed as in vivo. Particulars: for Ratio N2/Kv4.3: EC50 on N2 divided by EC50 on the Kv4.3 expressing strain, cut-off 1.8; for EC50: transgenic strain UG1755 expressing human Kv4.3, read-out: EC50 (μM) Kv4.3 worm. The source says: A C. elegans based high-throughput screen for Kv4.3 modulators has been used to establish an in vivo SAR (structure-activity relationships: the effect of chemical structure on biological activity) on Kv4.3 for the compounds according to the present invention.
This assay has employed a stable transgenic C. elegans strain that functionally expressed human Kv4.3 in the pharynx and a visible selection GFP maker in body-wall muscle.
The pharynx is the feeding organ of C. elegans and contracts rhythmically 3-4 times per second. The pharynx contraction is controlled by the nervous system via action potentials similar to the human myocyte and can thus be used to study human ion channel physiology in vivo in C. elegans.
Introducing the human Kv4.3 channel into the C. elegans pharynx influences the C. elegans action potential in a characteristic fashion. The additional number of potassium channels increases potassium ion efflux, enhances re-polarization and thereby shortens the action potential duration. […] The shortened action potentials of the C. elegans pharynx resulting from expression of human Kv4.3, changes the pharynx contraction-relaxation cycle and consequently reduces the pumping/feeding in these transgenic animals. This change of pumping is an end-point amenable to high-throughput screening technology. The pumping end-point can be technically translated into a high-throughput read-out by the use of a pro-fluorescent dye. The pro-fluorescent dye is taken up by C. elegans depending on its pumping activity and converted into a fluorescent dye by enzymes located in its intestines. After a defined incubation period, the change of fluorescence intensity in the intestine can be measured with a plate reader.
(§1) The screening of the compounds according to the present invention has been performed in the C. elegans based high-throughput screen for Kv4.3 modulators described above. The method for testing the activity on human Kv4.3 of the compounds according to the invention with C. elegans strains expressing human Kv4.3 for their activity is the same as the method described in WO 03/097682. The method for testing the compounds on wild-type C. elegans strains not expressing human Kv4.3 is the same as the method described in WO 00/63427. Briefly, UG1755 animals have been grown in large numbers and staged young adults (no or only few eggs inside the uterus) have been harvested on the day of screening. Approximately 125 animals in 80 μl buffer have been dispensed per well of a “U shaped 96-well compound plate The compound plate contained already compound material at a final concentration of 30 μM in 0.3% DMSO. After one hour incubation 10 μl of the fluorescent label Calcein AM (CAM) have been added to achieve a final concentration of 5 μM CAM and 0.8% DMSO. After another four hours of incubation at 20° C., the drinking of C. elegans animals (or the “reaction 8 measured by the uptake of CAM) has been stopped by adding 10 μl of a 60 μM ivermectin solution. The fluorescence intensity (counts per second) has been measured 40 minutes after adding ivermectin with the Wallac plate reader at a wavelength of 535 nm (after excitation at 485 nm).
The active compounds have been identified and confirmed by dose-response analysis. An EC50 has been calculated and the results are listed under Table 3. Dose-response curves have been obtained at concentrations of 30 μM. EC50 has been calculated using XLfit 2.09 software package.

In data set [1] the test system is C. elegans wild-type strain N2. Kind of data set: Same C. elegans pumping assay format using wild-type strain N2. In kind it is in vivo. Particulars: read-out: EC50 (μM) Wild type worm N2.
Source text: as §1
These compounds have been also tested in the same assay format using a C. elegans wild-type strain N2 and the corresponding EC50 has been calculated. The ratio of the EC50s obtained for a compound on the two strains (transgenic expressing human Kv4.3 and wild-type) gives an indication on whether said compound is acting on human Kv4.3. […]

Data set [2] deals with T2, human Kv4.3/KChIP2.2 potassium channel (Homo sapiens, UniProt Q9UK17).
T2 construct: expressed in transfected cells
T2 sequence (Q9UK17 1-655): T1 sequence (Q9UK17 1-655)
Description: Whole cell patch clamp, CHO-K1 cells stably expressing human Kv4.3/KChIP2.2. It is filed as cell-based. The settings on record: CHO-K1. How it is done:
For this experiment, a recombinant CHO-K1 cell line stably expressing the human Kv4.3/KChIP2.2 potassium channel was used. The cells used for this experiment were kept in continuous culture under standard conditions (37° C., air supplemented with 7% CO2). The CHO-K1 Kv4.3/KChIP2.2 cells were kept in Iscove s modified DMEM (Dulbecco's Modified Eagle's Medium) medium (IMEM) supplemented with 100 U/ml Penicillin, 100 μg/ml Streptomycin, 7% fetal calf serum (FCS), 2.5 μg/ml amphotericin, 400 μg/ml G418, and 400 μg/ml Zeocin™. Cells were passed every 3-4 days after detachment using a Trypsin solution. The quality of the cultured cells was guaranteed by vitality and contamination tests. The culture of the cells was performed as described in protocol D hereunder.
10 mM stock solutions of the compounds were prepared in DMSO. Solutions of the compounds were prepared by dilution of stock solution in bath solution. If the required stock solution volume was theoretically below 1 μl, bath solutions with higher compound concentration were used for dilution. The maximal DMSO concentration during experiments was 0.1% (v/v).
Activity of the human Kv4.3/KChIP2.2 channel was investigated using the patch clamp technique in its whole cell mode. This means that the current needed for clamping the whole cell expressing the K^+-channel protein to a specific potential was measured. Experiments were performed using a patch clamp set-up. Technical equipment needed for manipulation of the cells was placed on a vibration-isolated table and shielded with a Faraday cage to minimize electrical noise. The amplifier and control system were placed in a rack outside the Faraday cage. The system consisted of an EPC9 or EPC10 patch clamp amplifier (HEKA, Lambrecht, Germany), and the perfusion system DADVC8 (ALA Scientific, New York, USA) controlled by the Pulse software package (HEKA, Lambrecht, Germany) installed on a personal computer. The pipettes used for patch clamping were made of borosilicate glass.
Measurements were performed at room temperature (20-25° C.). In each experiment (i.e. each cell) only one concentration of the compounds was investigated no cumulative dosages were performed. Each cell acted as its own control. […]
Between voltage pulses the cell was clamped to a holding potential of −80 mV (inside). The test protocols are illustrated in FIG. 1 and Table 4. The test protocol illustrated in FIG. 1a was used to characterize the properties of the Kv4.3/KChIP2.2 channel and to check the quality of the individual patch clamp experiment (voltage control). […] Each test protocol consisted of 4 segments.
After the whole cell configuration was established a current-voltage curve (IV activation 1; FIG. 1a and Table 4a) was recorded under constant superfusion with bath solution to check for Kv4.3/KChIP2.2 expression and the quality of the individual patch clamp experiment (voltage control). Subsequently, 14 test pulses (series 1; FIG. 1b and Table 4b) were applied at 0.1 Hz under constant superfusion with bath solution. The protocol was initiated by a voltage jump to 100 mV (400 ms) to achieve full inactivation. Then the Kv4.3/KChIP2.2 channels were transferred to the open state by depolarization to +40 mV for 300 milliseconds (activation). Only cells generating current amplitudes between 1 nA and 50 nA were used for the experimental procedure. No or negligible rundown was observed.
Then, 36 test pulses (series 2) were applied at 0.1 Hz under constant superfusion with the compound dissolved in bath solution. Finally, another current-voltage curve was recorded in the presence of the compounds (IV activation 2).
Three different types of analysis were used: Inhibition at the peak current, inhibition of translocated charge and inhibition 75 ms after activation at +40 mV (sustained current). The peak current/charge/current at 75 ms was determined using the online analysis tool of the HEKA pulse software package. […]
A general note: The patch-clamp technique gives a direct electrical read-out from membranes.

Setting [3] is: remaining current measured after application of the compound and relative to the blank, read-out: Kv4.3 charge in %.
The mark [4] stands for this setting: remaining peak height measured after application of the compound and relative to the blank, read-out: Kv4.3 peak in %.

The structures appear in SMILES notation. Like-named read-outs stand apart in the source and are kept apart here.

Consider `Cc1cccc(C)c1Nc1nc(C(=O)N[C@H](C)c2ccc([N+](=O)[O-])cc2)cs1` [Compound 43, 2-(2,6-dimethyl-phenylamino)-thiazole-4-carboxylic acid (R)-1-(4-nitro-phenyl)ethyl amide], for which the “Ratio N2/Kv4.3” value at human Kv4.3 was 1.8. Moreover, the results for the EC50 (on human Kv4.3; in data set [1] (Caenorhabditis elegans)) were 18.9 µM and 35 µM, respectively.

As to `Cc1nc(Nc2ccc(Br)cc2)sc1C(=O)N[C@H](C)c1ccc([N+](=O)[O-])cc1` [Compound 22, 2-(4-bromo-phenylamino)-4-methyl-thiazole-5-carboxylic acid (R)-1-(4-nitrophenyl)ethyl amide], at human Kv4.3, the “Ratio N2/Kv4.3” value was above 2.6 and the EC50 is 11.7 µM. In addition, the EC50 in data set [1] (Caenorhabditis elegans) is above 30 µM.

Turning to `COc1ccc(Cl)cc1Nc1nc(C(=O)N[C@@H]2CCCC[C@H]2OCc2ccccc2)cs1` [Compound 51, 2-(5-chloro-2-methoxy-phenylamino)-thiazole-4-carboxylic acid (1R,2R)-2-(benzyloxycyclohex-1-yl) amide], at human Kv4.3, the “Ratio N2/Kv4.3” value was above 1.8 and the concentration for a half-maximal effect (EC50) is 17 µM. In addition, the EC50 in data set [1] (Caenorhabditis elegans) was above 30 µM.

For `Cc1cc(C)cc(Nc2nc(C(=O)N[C@@H]3CCC[C@H]3OCc3ccccc3)cs2)c1` [Compound 45, 2-(3,5-dimethyl-phenylamino)-thiazole-4-carboxylic acid (1R,2R)-2-(benzyloxycyclopent-1-yl)-amide], the “Ratio N2/Kv4.3” value at human Kv4.3 was 28.0. The EC50 on human Kv4.3 was 1.3 µM; in data set [1] (Caenorhabditis elegans), 37 µM.

Consider `Cc1nc(Nc2ccc(F)cc2)sc1C(=O)N[C@@H](C)c1ccc2ccccc2c1` [Compound 15, 2-(4-fluoro-phenylamino)-4-methyl-thiazole-5-carboxylic acid (S)-1-(naphthalen-2-yl)ethyl amide], for which, at human Kv4.3, the “Ratio N2/Kv4.3” value was 2.4 and the concentration for a half-maximal effect (EC50) was 10.1 µM. In addition, the EC50 in data set [1] (Caenorhabditis elegans) was 24 µM.

Take `O=C(N[C@H]1CCCC[C@@H]1OCc1ccccc1)c1csc(Nc2ccc(Cl)cc2)n1` [Compound 41, 2-(4-chloro-phenylamino)-thiazole-4-carboxylic acid (1S,2S)-2-(benzyloxycyclohex-1-yl) amide]: at human Kv4.3, the “Ratio N2/Kv4.3” value is 2.2 and the EC50 is 22 µM. In data set [1], the EC50 came to 48 µM.

Consider `COc1ccccc1Nc1nc(C)c(C(=O)OCc2ccccc2)s1` [Compound 123, 2-(2-methoxy-phenylamino)-4-methyl-thiazole-5-carboxylic acid benzyl ester], for which the melting point is 98.4 to 100 °C. The remaining activity at 1 µM in data set [2] (setting [3]) worked out at 31%. In addition, in data set [2] (setting [4]), the remaining activity at 1 µM was 72%.

`COc1ccccc1Nc1nc(C)c(C(=O)N2CCC(c3ccccc3OC)CC2)s1` [Compound 165, [2-(2-methoxy-phenylamino)-4-methyl-thiazol-5-yl]-[4-(2-methoxy-phenyl)-piperidin-1-yl]-methanone]: the melting point was 134.5 to 139 °C. The remaining activity at 1 µM in data set [2] (setting [3]) was determined as 80%. In data set [2] (setting [4]), the remaining activity at 1 µM amounted to 100%.

In turn, `COc1ccccc1Nc1nc(C)c(C(=O)N[C@H](C(=O)O)c2ccccc2)s1` [Compound 114, (S)-{[2-(2-methoxy-phenylamino)-4-methyl-thiazole-5-carbonyl]-amino}-phenyl-aceticacid] registered a melting point of 259.6 to 262 °C. Besides, the remaining activity at 1 µM in data set [2] (setting [3]) turned out to be 88%. Moreover, the remaining activity at 1 µM in data set [2] (setting [4]) is 87%.

`COc1ccccc1Nc1nc(C)c(C(=O)N2CCCCC2Cc2ccccc2)s1` (stereo not drawn) [Compound 86, (2-benzyl-piperidin-1-yl)-[2-(2-methoxy-phenylamino)-4-methyl-thiazol-5-yl]-methanone] gave a melting point of 93.2 to 95.6 °C. Further, in data set [2] (setting [3]), the remaining activity at 1 µM amounted to 79%. In addition, the remaining activity at 1 µM in data set [2] (setting [4]) is 102%.

By EC50 is commonly meant the concentration at which the effect is half-maximal. As usually defined, the melting point is the temperature, or range, at which the solid turns liquid.

These data come from patent US20080125432A1 (Devgen NV, priority 2004, published 2008).
